Non-standard residues stand in square brackets, D forms with d. Residues, ends and D or L forms follow the SMILES beside them. *: point of attachment. Phe(3-Cl) = N[C@@H](Cc1cccc(Cl)c1)C(=O)O; Phe(2-Cl) = N[C@@H](Cc1ccccc1Cl)C(=O)O; 1Nal = N[C@@H](Cc1cccc2ccccc12)C(=O)O; 2Nal = N[C@@H](Cc1ccc2ccccc2c1)C(=O)O; Arg(Me) = CNC(=N)NCCC[C@H](N)C(=O)O; Fmoc = O=C(OCC1c2ccccc2-c2ccccc21)*; 4Pal = N[C@@H](Cc1ccncc1)C(=O)O; Cha = N[C@@H](CC1CCCCC1)C(=O)O; azaGly = NNC(=O)O
Biological target: T1, hOT7T175 (Homo sapiens, UniProt Q969F8, L364H)
T1 construct: expressed in transfected cells
T1 sequence (Q969F8 whole entry L364H): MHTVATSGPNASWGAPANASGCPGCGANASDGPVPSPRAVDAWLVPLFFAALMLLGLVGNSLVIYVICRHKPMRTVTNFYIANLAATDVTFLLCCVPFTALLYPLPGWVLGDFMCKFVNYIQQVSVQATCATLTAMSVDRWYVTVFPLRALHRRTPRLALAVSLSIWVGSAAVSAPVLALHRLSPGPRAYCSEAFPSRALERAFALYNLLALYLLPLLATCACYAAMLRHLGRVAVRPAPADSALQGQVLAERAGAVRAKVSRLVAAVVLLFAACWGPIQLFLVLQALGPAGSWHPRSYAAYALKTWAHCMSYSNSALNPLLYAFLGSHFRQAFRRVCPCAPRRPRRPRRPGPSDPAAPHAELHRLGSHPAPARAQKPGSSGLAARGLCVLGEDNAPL
Experiment: Intracellular Ca ion level-increasing activity using FLIPR (180 seconds; specific activity to Metastin (1-54))
Type: cell-based
Settings: hOT7T175/CHO, relative to Metastin (1-54) = 1

Compound | Specific Act. (intracellular Ca ion level-increasing activity, specific activity to Metastin (1-54))
CNC(=N)NCCC[C@H](NC(=O)[C@H](CC(C)C)NC(=O)NNC(=O)[C@H](Cc1ccccc1)NC(=O)[C@H](CO)NC(=O)[C@H](CC(N)=O)NC(=O)[C@H](C)NC(=O)[C@H](CC(N)=O)NC(=O)[C@H](N)Cc1ccc(O)cc1)C(=O)N[C@@H](Cc1ccccc1)C(N)=O [Compound No. 235, D-Tyr-Asn-Ala-Asn-Ser-Phe-AzaGly-Leu-Arg(Me)-Phe-NH2] (H-[dY]NANSF[azaGly]L[Arg(Me)]F-NH2) | 1
CC(C)C[C@H](NC(=O)CNC(=O)[C@H](Cc1ccccc1)NC(=O)[C@H](CO)NC(=O)[C@H](CC(N)=O)NC(=O)[C@H](Cc1c[nH]c2ccccc12)NC(=O)[C@H](CC(N)=O)NC(=O)[C@@H](N)Cc1ccc(O)cc1)C(=O)N[C@@H](CCCNC(=N)N)C(=O)N[C@@H](Cc1cccc2ccccc12)C(N)=O [Compound No. 133] (H-YNWNSFGLR[1Nal]-NH2) | 3
CNC(=N)NCCC[C@H](NC(=O)[C@H](CC(C)C)NC(=O)NNC(=O)[C@H](Cc1ccccc1)NC(=O)[C@H](CO)NC(=O)[C@H](CC(N)=O)NC(=O)[C@H](Cc1cccc2ccccc12)NC(=O)[C@H](CC(N)=O)NC(=O)[C@H](N)Cc1ccc(O)cc1)C(=O)N[C@@H](Cc1ccccc1)C(N)=O [Compound No. 245, D-Tyr-Asn-Nal(1)-Asn-Ser-Phe-AzaGly-Leu-Arg(Me)-Phe-NH2] (H-[dY]N[1Nal]NSF[azaGly]L[Arg(Me)]F-NH2) | 1
CC(C)C[C@H](NC(=O)CNC(=O)[C@H](Cc1ccccc1)NC(=O)[C@H](CO)NC(=O)[C@H](CC(N)=O)NC(=O)[C@H](Cc1c[nH]c2ccccc12)NC(=O)[C@H](CC(N)=O)NC(=O)[C@@H](N)Cc1ccc(O)cc1)C(=O)N[C@@H](CCCNC(=N)N)C(=O)N[C@@H](Cc1ccncc1)C(N)=O [Compound No. 17] (H-YNWNSFGLR[4Pal]-NH2) | 5
CC(C)C[C@H](NC(=O)CNC(=O)[C@H](Cc1ccccc1)NC(=O)[C@H](CO)NC(=O)[C@H](CC(N)=O)NC(=O)[C@H](Cc1c[nH]c2ccccc12)NC(=O)OCC1c2ccccc2-c2ccccc21)C(=O)N[C@@H](CCCNC(=N)N)C(=O)N[C@@H](Cc1ccccc1)C(N)=O [Compound No. 54] (Fmoc-WNSFGLRF-NH2) | 5
CNC(=N)NCCC[C@H](NC(=O)[C@H](CC(C)C)NC(=O)NNC(=O)[C@H](Cc1ccccc1)NC(=O)[C@H](CO)NC(=O)[C@H](CC(N)=O)NC(=O)[C@H](Cc1cccc(Cl)c1)NC(=O)[C@H](CC(N)=O)NC(=O)[C@H](N)Cc1ccc(O)cc1)C(=O)N[C@@H](Cc1ccccc1)C(N)=O [Compound No. 248, D-Tyr-Asn-Phe(3Cl)-Asn-Ser-Phe-AzaGly-Leu-Arg(Me)-Phe-NH2] (H-[dY]N[Phe(3-Cl)]NSF[azaGly]L[Arg(Me)]F-NH2) | 2
CC(C)C[C@H](NC(=O)CNC(=O)[C@H](Cc1ccccc1)NC(=O)[C@H](CO)NC(=O)[C@H](CC(N)=O)NC(=O)[C@H](Cc1c[nH]c2ccccc12)NC(=O)[C@H](CC(N)=O)NC(=O)[C@@H](N)Cc1ccc(O)cc1)C(=O)N[C@@H](CCCNC(=N)N)C(=O)N[C@@H](Cc1ccc2ccccc2c1)C(N)=O [Compound No. 110] (H-YNWNSFGLR[2Nal]-NH2) | 20
CC[C@H](C)[C@H](NC(=O)[C@H](N)Cc1ccc(O)cc1)C(=O)N[C@@H](CC(N)=O)C(=O)N[C@@H](CO)C(=O)N[C@@H](Cc1ccccc1)C(=O)NCC(=O)N[C@@H](CC(C)C)C(=O)N[C@@H](CCCNC(=N)NC)C(=O)N[C@@H](Cc1ccccc1)C(N)=O [Compound No. 228] (H-[dY]INSFGL[Arg(Me)]F-NH2) | 5
CNC(=N)NCCC[C@H](NC(=O)[C@H](CC(C)C)NC(=O)NNC(=O)[C@H](Cc1ccccc1)NC(=O)[C@H](CO)NC(=O)[C@H](CC(N)=O)NC(=O)[C@H](Cc1ccccc1)NC(=O)[C@H](CC(N)=O)NC(=O)[C@H](N)Cc1ccc(O)cc1)C(=O)N[C@@H](Cc1ccccc1)C(N)=O [Compound No. 244, D-Tyr-Asn-Phe-Asn-Ser-Phe-AzaGly-Leu-Arg(Me)-Phe-NH2] (H-[dY]NFNSF[azaGly]L[Arg(Me)]F-NH2) | 1
CC(C)C[C@H](NC(=O)CNC(=O)[C@H](Cc1cccc2ccccc12)NC(=O)[C@H](CO)NC(=O)[C@H](CC(N)=O)NC(=O)[C@H](Cc1c[nH]c2ccccc12)NC(=O)[C@H](CC(N)=O)NC(=O)[C@@H](N)Cc1ccc(O)cc1)C(=O)N[C@@H](CCCNC(=N)N)C(=O)N[C@@H](Cc1ccccc1)C(N)=O [Compound No. 151, Tyr-Asn-Trp-Asn-Ser-Nal(1)-Gly-Leu-Arg-Phe-NH2] (H-YNWNS[1Nal]GLRF-NH2) | 1
CCCC[C@H](NC(=O)CNC(=O)[C@H](Cc1ccccc1)NC(=O)[C@H](CO)NC(=O)[C@H](CC(N)=O)NC(=O)[C@H](Cc1c[nH]c2ccccc12)NC(=O)[C@H](CC(N)=O)NC(=O)[C@@H](N)Cc1ccc(O)cc1)C(=O)N[C@@H](CCCNC(=N)N)C(=O)N[C@@H](Cc1ccccc1)C(N)=O [Compound No. 105, Tyr-Asn-Trp-Asn-Ser-Phe-Gly-Nle-Arg-Phe-NH2] | 1
CNC(=N)NCCC[C@H](NC(=O)[C@H](CC(C)C)NC(=O)CNC(=O)[C@H](CC1CCCCC1)NC(=O)[C@H](CO)NC(=O)[C@H](CC(N)=O)NC(=O)[C@H](CC1CCCCC1)NC(=O)[C@H](CC(N)=O)NC(=O)[C@H](N)Cc1ccc(O)cc1)C(=O)N[C@@H](Cc1c[nH]c2ccccc12)C(N)=O [Compound No. 182, D-Tyr-Asn-Cha-Asn-Ser-Cha-Gly-Leu-Arg(Me)-Trp-NH2] (H-[dY]N[Cha]NS[Cha]GL[Arg(Me)]W-NH2) | 5
CC(C)C[C@H](NC(=O)CNC(=O)[C@H](Cc1ccccc1)NC(=O)[C@H](CO)NC(=O)[C@H](CC(N)=O)NC(=O)[C@H](Cc1cn(C=O)c2ccccc12)NC(=O)[C@H](CC(N)=O)NC(=O)[C@@H](N)Cc1ccc(O)cc1)C(=O)N[C@@H](CCCNC(=N)N)C(=O)N[C@@H](Cc1ccc(C#N)cc1)C(N)=O [Compound No. 78, Tyr-Asn-Trp(For)-Asn-Ser-Phe-Gly-Leu-Arg-Phe(4CN)-NH2] | 10
CNC(=N)NCCC[C@H](NC(=O)[C@H](CC(C)C)NC(=O)CNC(=O)[C@H](Cc1ccccc1)NC(=O)[C@H](CO)NC(=O)[C@H](CC(N)=O)NC(=O)[C@@H](Cc1c[nH]c2ccccc12)NC(=O)[C@H](CC(N)=O)NC(=O)[C@@H](N)Cc1ccc(O)cc1)C(=O)N[C@@H](Cc1ccccc1)C(N)=O [Compound No. 143, Tyr-Asn-D-Trp-Asn-Ser-Phe-Gly-Leu-Arg(Me)-Phe-NH2] | 3
CC(C)C[C@H](NC(=O)CNC(=O)[C@H](Cc1ccccc1)NC(=O)[C@H](CO)NC(=O)[C@H](CC(N)=O)NC(=O)[C@H](Cc1c[nH]c2ccccc12)NC(=O)[C@H](CC(N)=O)NC(=O)[C@@H](N)Cc1ccc(O)cc1)C(=O)N[C@@H](CCCNC(=N)N)C(=O)N[C@@H](Cc1cccc(C(F)(F)F)c1)C(N)=O [Compound No. 200] | 10
CC(=O)N[C@@H](Cc1ccc(O)cc1)C(=O)N[C@@H](CC(N)=O)C(=O)N[C@@H](Cc1c[nH]c2ccccc12)C(=O)N[C@@H](CC(N)=O)C(=O)N[C@@H](CO)C(=O)N[C@@H](Cc1ccccc1)C(=O)NCC(=O)N[C@@H](CC(C)C)C(=O)N[C@@H](CCCNC(=N)N)C(=O)N[C@@H](Cc1ccccc1)C(N)=O [Compound No. 30] | 10
CNC(=N)NCCC[C@H](NC(=O)[C@H](CC(C)C)NC(=O)NNC(=O)[C@H](Cc1ccccc1)NC(=O)[C@H](CO)NC(=O)[C@H](CC(N)=O)NC(=O)[C@H](Cc1ccccc1Cl)NC(=O)[C@H](CC(N)=O)NC(=O)[C@H](N)Cc1ccc(O)cc1)C(=O)N[C@@H](Cc1ccccc1)C(N)=O [Compound No. 247, D-Tyr-Asn-Phe(2Cl)-Asn-Ser-Phe-AzaGly-Leu-Arg(Me)-Phe-NH2] (H-[dY]N[Phe(2-Cl)]NSF[azaGly]L[Arg(Me)]F-NH2) | 1
CNC(=N)NCCC[C@H](NC(=O)[C@H](CC(C)C)NC(=O)CNC(=O)[C@H](Cc1ccccc1)NC(=O)[C@H](CO)NC(=O)[C@H](CC(N)=O)NC(=O)[C@H](CO)NC(=O)[C@H](N)Cc1ccc(O)cc1)C(=O)N[C@@H](Cc1ccccc1)C(N)=O [Compound No. 226] (H-[dY]SNSFGL[Arg(Me)]F-NH2) | 1
CNC(=N)NCCC[C@H](NC(=O)[C@H](CC(C)C)NC(=O)CNC(=O)[C@H](Cc1ccccc1)NC(=O)[C@H](CO)NC(=O)[C@H](CC(N)=O)NC(=O)[C@@H](Cc1c[nH]c2ccccc12)NC(=O)[C@H](CC(N)=O)NC(=O)[C@H](N)Cc1ccc(O)cc1)C(=O)N[C@@H](Cc1ccccc1)C(N)=O [Compound No. 142, D-Tyr-Asn-D-Trp-Asn-Ser-Phe-Gly-Leu-Arg(Me)-Phe-NH2] | 2
CC(C)C[C@H](NC(=O)CNC(=O)[C@H](Cc1ccccc1)NC(=O)[C@H](CO)NC(=O)[C@H](CC(N)=O)NC(=O)[C@H](Cc1c[nH]c2ccccc12)NC(=O)[C@H](CC(N)=O)NC(=O)[C@@H](N)Cc1ccc(O)cc1)C(=O)N[C@@H](CCCNC(=N)N)C(=O)N[C@@H](Cc1c(F)c(F)c(F)c(F)c1F)C(N)=O [Compound No. 111] | 3
H-YNWNLFGLRF-NH2 [Compound No. 24] | 1
CNC(=N)NCCC[C@H](NC(=O)[C@H](CC(C)C)NC(=O)CNC(=O)[C@H](Cc1ccccc1)NC(=O)[C@H](CO)NC(=O)[C@H](CC(N)=O)NC(=O)[C@H](Cc1c[nH]c2ccccc12)NC(=O)[C@@H](CC(N)=O)NC(=O)[C@H](N)Cc1ccc(O)cc1)C(=O)N[C@@H](Cc1ccccc1)C(N)=O [Compound No. 230] | 10

— patent publication US8778871B2 (Takeda Pharmaceutical Company Limited, priority 2004, dated 2014)
